This is an account of results in article PMC7969007, “The CRISPR ancillary effector Can2 is a dual-specificity nuclease potentiating type III CRISPR defence” (Nucleic Acids Research, 2021).

The target of one test is T1, SthCan2 (Sulfobacillus thermosulfidooxidans, UniProt A0A8I3AZU2).
T1 construct: synthetic gene in pEHisV5TEV, His tag cut by TEV, E. coli C43 (SeMet in B834 for the crystal); homodimer; residues 3-366 traced
T1 sequence (A0A8I3AZU2 1-366): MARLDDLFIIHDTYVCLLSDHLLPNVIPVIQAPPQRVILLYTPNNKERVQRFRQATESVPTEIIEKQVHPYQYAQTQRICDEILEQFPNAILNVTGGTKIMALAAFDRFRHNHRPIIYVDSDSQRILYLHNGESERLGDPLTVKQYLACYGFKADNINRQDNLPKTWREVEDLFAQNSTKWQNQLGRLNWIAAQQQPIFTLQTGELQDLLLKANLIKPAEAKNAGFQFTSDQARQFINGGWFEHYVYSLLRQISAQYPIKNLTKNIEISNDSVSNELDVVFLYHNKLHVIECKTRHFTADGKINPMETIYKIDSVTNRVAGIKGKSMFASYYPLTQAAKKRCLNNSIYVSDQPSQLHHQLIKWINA
Briefly: X-ray crystal structure (co-crystal, […] A). Format: binding. The following applies: SeMet protein, protein:cA4 1:1 molar; one cA4 per dimer at the CARF dimer interface; allosteric activator of Mn2+-dependent nuclease; not degraded by the enzyme.

The target in test [1] is Can2 (CRISPR ancillary nuclease 2) from Sulfobacillus thermosulfidooxidans, selenomethionine labelled (Sulfobacillus thermosulfidooxidans). Briefly: crystal structure; SeMet SthCan2 at 8 mg/ml co-crystallised with cA4 at 1:1 protein:cA4; 20% (w/v) PEG 3350, 0.2 M ammonium nitrate pH 6.3, room temperature; 2.02 Å; four protein molecules in the asymmetric unit.

In the case of `Nc1ncnc2c1ncn2[C@@H]1O[C@@H]2COP(=O)(O)O[C@H]3[C@@H](O)[C@H](n4cnc5c(N)ncnc54)O[C@@H]3COP(=O)(O)O[C@H]3[C@@H](O)[C@H](n4cnc5c(N)ncnc54)O[C@@H]3COP(=O)(O)O[C@H]3[C@@H](O)[C@H](n4cnc5c(N)ncnc54)O[C@@H]3COP(=O)(O)O[C@H]2[C@H]1O` [cA4], on SthCan2, the “X-ray crystal structure (co-crystal, 2.02 A)” value was “form two dimers each bound to a molecule of cA4”.

“Can2 (CRISPR ancillary nuclease 2) from Sulfobacillus thermosulfidooxidans, selenomethionine labelled (enzyme)” returned a stoichiometry N in test [1] of 2.

As a reminder, the stoichiometry N is the number of molecules, sites or subunits per partner or assembly.
